Type in all cases: physicochemical
The nature of data set [1]: Stability of ketotifen-perborate formulations filled in polypropylene bottles and stored at 55° C. The following applies: stored at 55° C., Table 2 formulations. How it is done: The stability of the formulations shown in Table 1 are evaluated by filling the formulations in bottles and storing the formulations at 55° C. for various times.
A short description of data set [2]: Hot stability: formulations heated at 100° C. for 24 hours.
Data set [3] is described as follows: Compatibility of ketotifen with low concentrations of hydrogen peroxide.

Turning to `CN1CCC(=C2c3ccccc3CC(=O)c3sccc32)CC1` [ketotifen], the “Stability of ketotifen (in words)” value in data set [1] and in data set [2] was “stable” each time. The “Compatibility with low concentrations of hydrogen peroxide” value is recorded as “compatible” in data set [3] (formulated at a pH lower than neutral pH) and “not compatible” in data set [3] (formulated at neutral pH, i.e., a pH of about 7).

For the origin of these results see patent publication US20080207692A1, “Stabilized and preserved ketoifen ophthalmic compositions” (priority 2005, published 2008).
